According to US20070116820A1, “EDIBLE GEL COMPOSITIONS COMPRISING HIGH-POTENCY SWEETENERS” (THE COCA-COLA COMPANY, priority 2005, published 2007):

How the values were obtained:
[1] = type: physicochemical
Procedure: A solution of rebaudioside A (>97% pure by HPLC ) was prepared in double distilled water (12.5 gm in 50 mL, 25% concentration) by stirring the mixture at 40° C. for 5 minutes. An amorphous form of rebaudioside A was formed by immediately using the clear solution for spray drying with the Lab-Plant spray drier SD-04 instrument (Lab-Plant Ltd., West Yorkshire, U.K.). The solution was fed through the feed pump into the nozzle atomizer which atomized it into a spray of droplets with the help of a constant flow of nitrogen/air. […] This dry powder (11-12 g, H2O 6.74%) was discharged continuously from the drying chamber and was collected in a bottle.

[2] = Rate of dissolution of rebaudioside A polymorph and amorphous forms in H2O at 25° C.; type: physicochemical

Substance | solubility in water at room temperature [1] | Rate of dissolution in H2O at 25° C. ([2]; per 5 minutes) | Rate of dissolution in H2O at 25° C. ([2]; per 60 minutes)
rebaudioside A [Form 4] | > 35.0% | High (>35.0%/ %/5 minutes | 
rebaudioside A [Form 3] |  | High (>30%/ %/5 minutes | 
rebaudioside A [Form 1] |  |  | (<0.2%/ %/60 minutes
rebaudioside A [Form 2] |  | (<30%/ %/5 minutes | 
